Assay results as given in patent US5739131A, “Benzene derivatives and pharmaceutical composition” (Kureha Chemical Industry Co., Ltd., priority 1994, dated 1998).
Where two headings read alike, the source gives them in different places.

What was measured:
[1] = tested on: kidney disease model rats; test: Renal function indicatory value (action to kidney diseases); format: in vivo, Sprague-Dawley female rats; conditions: 20 mg/kg/day per os, two weeks; for Creatinine clearance: 24 hours urine, control 0.20; for Creatinine / Urea nitrogen: serum; for Creatinine: control 2.0; for Urea nitrogen: control 100
Method: The kidney disease model rats were prepared as in Example 115. Twenty-five groups (8 rats per group) were sleeked in a manner so that there were no major differences between each group in the serum creatinine value and the urea nitrogen value indicating renal function. The rats in each group were allowed to freely take up feed and water. […] To the rats in the control group, only water was forcedly administered per os every day. After two weeks, 0.2 ml of blood was collected from the carotid artery of the rat under anesthesia, and centrifuged to obtain serum. Using 25 μl of the serum, serum creatinine (Scr) was measured by a creatinine analytical instrument (Beckman). Using 10 μl of the serum, urea nitrogen (BUN) was measured by a BUN analytical instrument (Beckman). Creatinine clearance was evaluated as follows:
After serum creatinine measurement, rats were placed in urinary metabolic cages for 24 hours to collect urine. Urinary creatine concentration (Ucr) was measured by a creatinine analytical instrument, and total volume of urination (Uvol) was also measured. Creatinine clearance (CCr) was calculated by the following formula: [formula]

[2] = target: T1, angiotensin II receptor subtype 2 (AT2) (Bos taurus, UniProt G5E6F7); test: Binding assay, angiotensin II receptor subtype 2 (AT2); design: species or system bovine (cerebellar cortex); conditions: read-out: Binding inhibition % in 100 μm, AT2
T1 construct: receptor: from cerebellar cortex in bovine; from tissue; host or cells: bovine cerebellar cortex
T1 sequence (G5E6F7 1-362): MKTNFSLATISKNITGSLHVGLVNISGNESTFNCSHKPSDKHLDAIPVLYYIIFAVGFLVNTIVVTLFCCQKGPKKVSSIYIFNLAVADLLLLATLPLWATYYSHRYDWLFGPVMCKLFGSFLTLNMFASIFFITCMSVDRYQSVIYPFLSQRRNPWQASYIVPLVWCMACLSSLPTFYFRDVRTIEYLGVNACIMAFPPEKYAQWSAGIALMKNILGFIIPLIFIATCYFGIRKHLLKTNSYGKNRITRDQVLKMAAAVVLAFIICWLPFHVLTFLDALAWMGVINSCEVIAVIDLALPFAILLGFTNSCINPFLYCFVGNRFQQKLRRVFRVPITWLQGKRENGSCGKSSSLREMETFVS
Method: (§1) In this Example, the affinity to the angiotensin II receptor subtype 1 or subtype 2 was evaluated by a binding assay in accordance with the method described in Biochem. Pharmacol., 33, 4057-4062 (1984).
(§2) Specifically, the measurement of the total binding in the presence of each drug was performed as follows:
(§3) A mixture (final volume=0.25 ml) of a drug in a given concentration (the drug was dissolved in DMSO, and diluted to a double volume with a buffer attached to a drug discovery system to prepare sample for the assay; 0.025 ml), a tracer (0.025 ml), and receptors (0.2 ml) was incubated [in the case of the angiotensin II receptor subtype 1 (AT1), at room temperature for 3 hours, and in the case of the subtype 2 (AT2), at 37° C. for 1 hour]. Then, the reaction mixture was filtered with suction (GF/C filter was used in AT1, and GF/B filter was used in AT2). The filter papers after filtration with suction (the tracer bound to the receptors) were counted by a γ-well counter (ARC-500, Aloka). The non-specific bindings were measured by repeating the above method, except that a large excess amount of a displacer was added. The specific binding of the drug in the given concentration was calculated by subtracting the non-specific binding from the total binding, respectively.
(§4) In AT1 and AT2, the percentages to inhibit the bindings of radioactive ligands (tracer) to receptors by the drugs to be tested (IC50 value of concentration to show 50% inhibition, or binding inhibition % in 100 μM) were measured, using the drugs to be tested and control drugs in the given concentration.
receptor: from cerebellar cortex in bovine
tracer: ^125 ITyr^4angiotensin II
control drug: angiotensin II (human)
(displacer): angiotensin II (human)

[3] = tested on: kidney disease model rats; test: Action to survival time of kidney diseased animals; format: in vivo, Sprague-Dawley female rats; conditions: 20 mg/kg/day per os, observation eight weeks (upper limit); control 5.0
Method: The kidney disease model rats were prepared as in Example 115. Twenty-five groups (8 rats per group) were prepared in a manner so that there was no major difference between the groups in the serum creatinine value and the urea nitrogen value indicating renal function. The rats in each group were allowed to freely take up feed and water. […] To the rats in the control group, only water was forcedly administered per os every day. If kidney diseases are aggravated, the rat will die of uremia. Thus, the survival time was observed as comprehensive indication of the improvement effect on the kidney diseases. The observation period was eight weeks. Thus if all rats survived, the average survival time is eight weeks and it is an upper limit.

[4] = target: T2, angiotensin II receptor subtype 1 (AT1) (Oryctolagus cuniculus, UniProt P34976); test: Binding assay, angiotensin II receptor subtype 1 (AT1); design: species or system rabbit (adrenal glands); conditions: for inhibition at 100 µM: AT1, rabbit adrenal glands
T2 construct: receptor: from adrenal glands in rabbits; from tissue; host or cells: rabbit adrenal glands
T2 sequence (P34976 1-359): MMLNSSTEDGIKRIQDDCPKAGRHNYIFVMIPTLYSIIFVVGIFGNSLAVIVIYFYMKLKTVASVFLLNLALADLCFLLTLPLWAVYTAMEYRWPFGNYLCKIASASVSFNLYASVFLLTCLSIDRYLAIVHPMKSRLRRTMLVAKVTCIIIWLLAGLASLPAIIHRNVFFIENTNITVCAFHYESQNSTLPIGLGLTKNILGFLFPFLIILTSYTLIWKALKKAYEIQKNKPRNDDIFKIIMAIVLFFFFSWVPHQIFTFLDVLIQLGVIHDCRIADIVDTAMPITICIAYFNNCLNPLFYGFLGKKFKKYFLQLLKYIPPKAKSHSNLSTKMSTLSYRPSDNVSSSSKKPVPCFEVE
Method: as §1, §2, §3, §4

mice = test: Acute toxicity, single oral dose; format: in vivo
Method: Five-week-old ICR female mice (5 mice per group) were bred for acclimation for a week. Then, the compounds of the present invention were dissolved or dispersed in an aqueous solution of 0.5% methylcellulose, and orally administered to the mice in a single dosage (500 mg/kg).

[5] = tested on: kidney disease model rats; test: Action to depress blood pressure (tail cuff method); format: in vivo, Sprague-Dawley female rats; conditions: systolic, average, 20 mg/kg per os, two days from administration; control (water) 203
Method: The compounds of the present invention and the reference substance were forcedly administered per os to kidney disease model rats, and the action to depress blood pressure was observed. The kidney disease model rats were prepared by ligature of branches of renal artery in accordance with the conventional method, that is, the left hilum renalis of Sprague-Dawley female rats was exposed under anesthesia, and one of four secondary branches of renal artery was left unligated, while the remaining three branches were ligated, respectively. After a week, the hilum renalis (artery, vein, and ureter) of the right kidney were further ligated to thereby prepare the rats whose renal function was lowered to approximately 1/8 of the normal function. Each group consisted of eight rats. The drugs to be tested (20 mg/kg) were administered to each administering group, and only water was administered to control group. After two days from the administration, the systolic blood pressure was measured by the tail cuff method using a blood pressure measuring apparatus (UR5000; Ueda).

[6] = 100 μM, AT2, bovine cerebellar cortex, 37° C. 1 hour
[7] = tracer 3H angiotensin II, room temperature 3 hours, read-out: IC50 AT1
[8] = mice, single oral 500 mg/kg, observed for 6 days, 5 per group

Row | SMILES | Creatinine clearance [1] [mL/min] | Creatinine [1] [mg/dL] | Urea nitrogen [1] [mg/dL] | inhibition at 100 µM [2, 6] [%] | Average survival time [3] [weeks] | inhibition at 100 µM [4] [%] | Number of deaths/number of survivals (mice; mouse, in vivo, po, 500 mg/kg) | Blood pressure [5] [mmHg] | IC50 [4, 7] [µM] | Number of deaths/number of survivals (mice; [8]) | inhibition at 100 µM [2] [%] | IC50 [4] [µM]
1 | CCCCCN(C)c1ccc(S(=O)(=O)N2CCOCC2)cc1NCc1ccc(C(=O)O)cc1 [Compound No. 596, 4-[[4-(N-n-amyl-N-methyl)amino-3-[(4-carboxyphenyl)methyl]aminobenzene]sulfonyl]morpholine] | 0.34 | 1.6 | 78 | 0 | 6.0 | 22 | 0/5 | 198 | – | – | – | –
2 | CCCCC(=O)Nc1ccc(C(=O)N2CCOCC2)cc1OCc1ccc(-c2ccccc2-c2nnn[nH]2)cc1 [Compound No. 587, 3-[[2'-(1H-tetrazol-5-yl)biphenyl-4-yl]methyloxy]-4-valeramidobenzoic acid morpholide] | 0.34 | 1.7 | 77 | 0 | 7.0 | – | – | 201 | 7.9 | 0/5 | – | –
3 | CCCCC(=O)Nc1ccc(C(=O)N(CC)CC)cc1NCc1ccc(-c2ccccc2-c2nn[nH]n2)cc1 [Compound No. 586, [3-[[2'-(1H-tetrazol-5-yl)biphenyl-4-yl]methylamino]-4-valeramido]benzoic acid diethylamide] | 0.33 | 1.7 | 76 | – | 6.8 | – | – | 198 | – | 0/5 | 0 | 1.2
4 | CCCCCN(Cc1ccc(C(=O)O)cc1)c1cccc(C(=O)N2CCOCC2)c1 [Compound No. 158, 3-[N-(4-carboxyphenyl)methyl]-n-amylaminobenzoic acid morpholide] | 0.37 | 1.7 | 74 | 0 | 7.2 | 18 | 0/5 | 190 | – | – | – | –
5 | CCCCC(=O)N(Cc1ccc(C(=O)O)cc1)c1cc(C(=O)N2CCOCC2)ccc1N(C)C [Compound No. 184, 3-N-[[(4-carboxyphenyl)methyl]valeramido]-4-dimethylaminobenzoic acid morpholide] | 0.38 | 1.5 | 70 | 0 | 7.6 | 0 | 0/5 | 195 | – | – | – | –
6 | CCCCC(=O)N(Cc1ccc(C(=O)O)cc1)c1cc(C(=O)N2CCOCC2)ccc1C [Compound No. 278, 4-methyl-3-N-[[4-(carboxyphenyl)methyl]valeramido]benzoic acid morpholide] | 0.36 | 1.8 | 73 | 0 | 7.0 | 4 | 0/5 | 198 | – | – | – | –
7 | CCCCCN(Cc1ccc(C(=O)O)cc1)c1cc(C(=O)N2CCOCC2)ccn1 [Compound No. 535, 2-[N-n-amyl-N-(4-carboxyphenyl)methyl]aminoisonicotinic acid morpholide] | 0.38 | 1.5 | 72 | 0 | 7.6 | – | 0/5 | 195 | 3.8 | – | – | –
8 | CCCCC(=O)Nc1ccc(C(=O)N2CCOCC2)cc1N(Cc1ccc(-c2ccccc2-c2nn[nH]n2)cc1)Cc1ccc(-c2ccccc2-c2nn[nH]n2)cc1 [Compound No. 594, 3-[di-[2'-(1H-tetrazol-5-yl)biphenyl-4-yl]methylamino]-4-valeramidobenzoicacid morpholide] | 0.30 | 1.7 | 77 | 0 | 6.5 | – | – | 194 | 32 | 0/5 | – | –
9 | CCCCC(=O)N(Cc1ccc(C(=O)O)cc1)c1cccc(C(=O)N2CCOCC2)c1 [Compound No. 90, 3-[N-(4-carboxyphenyl)methyl]valeramidobenzoic acid morpholide] | 0.38 | 1.5 | 70 | 0 | 7.6 | 30 | 0/5 | 194 | – | – | – | –
